Consider 33 molecules from US20240067639A1, “SMALL MOLECULES THAT TARGET THE RNA THAT CAUSES ALS” (EXPANSION THERAPEUTICS, INC., priority 2020, published 2024).

Structures are written as SMILES. Read-outs that look alike come from different tables or passages of the source.

The target in assay [1] is Biotin-labeled RNA (target RNA). Kind of assay: BLI affinity measurement (ForteBio Octet RED384). The conditions noted are these: Table G. The format is binding.
Assay [2] has as its system RAN translation of (G4C2)66-No ATG-GFP in HEK293T cells. Kind of assay: Cell-based assay of RAN translation inhibition (GFP/mCherry reporter). The conditions noted are these: Homo sapiens, HEK-293T; for IC50: read-out: RANT IC50.
Assay [3] has as its target biotinylated r(G4C2)8 RNA and hnRNP H1-His6. Put plainly: TR-FRET hnRNP H binding assay. The conditions noted are these: Table D. Put shortly:
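Biotinylated r(G4C2)8 RNA (80 nM), heat-folded at 95 °C then slowly cooled, was preincubated 15 min with compound before hnRNP H1-His6 (75 nM) was added. After 15 min, streptavidin-XL665 (40 nM) and anti-His6-Tb (0.44 ng/μL) were added and TR-FRET was read after 1 h. IC50 was obtained by curve fitting.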
(In TR-FRET formats the signal depends on donor and acceptor labels being close together.)

In the case of `c1cc2cc3[nH]c4ccc(OCC5=NCCN5)cc4c3cc2cn1` [Compound 262, 9-((4,5-dihydro-1H-imidazol-2-yl)methoxy)-6H-pyrido[4,3-b]carbazole], binding in assay [1] was put at a Kd of 5200 nM. Also, the IC50 – broadly, the point on the concentration scale where inhibition reaches its midpoint – in assay [2] (Table G, HEK293T) is 6600 nM.

Regarding `Cc1c2ccncc2cc2c1[nH]c1ccc(OCCN)cc12` [Compound 263, 2-[(5-methyl-6H-pyrido[4,3-b]carbazol-9-yl)oxy]ethanamine], in assay [1], binding was characterised by a dissociation constant (Kd) of 610 nM. In addition, the IC50 in assay [2] (Table G, HEK293T) is greater than 100000 nM.

In the case of `Cc1c2ccncc2cc2c3cc(OCC(N)=O)cc(F)c3n(C)c12` [Compound 264, 2-(7-fluoro-5,6-dimethyl-pyrido[4,3-b]carbazol-9-yl)oxyacetamide], the Kd (in general, a measure of binding affinity in units of concentration) in assay [1] came to 180 nM. In addition, the IC50 in assay [2] (Table G, HEK293T) is greater than 100000 nM.

The molecule `Cc1c2ccncc2cc2c3cc(OC[C@H]4CCCN4)cc(F)c3n(C)c12` [Compound 265, (R)-7-fluoro-5,6-dimethyl-9-(pyrrolidin-2-ylmethoxy)-6H-pyrido[4,3-b]carbazole] displayed a Kd in assay [1] of 720 nM. Moreover, in assay [2] (Table G, HEK293T), the IC50 is greater than 100000 nM.

In turn, `Cc1c2ccncc2cc2c3cc(OCCCN4CCCCC4)ccc3n(C)c12` [Compound 266, 5,6-dimethyl-9-(3-(piperidin-1-yl)propoxy)-6H-pyrido[4,3-b]carbazole] yielded a Kd in assay [1] of 690 nM. Further, in assay [2] (Table G, HEK293T), the IC50 was 7800 nM.

The molecule `Cc1c2ccncc2cc2c3cc(OCC[C@@H](C)N)ccc3n(C)c12` [Compound 267, (R)-4-((5,6-dimethyl-6H-pyrido[4,3-b]carbazol-9-yl)oxy)butan-2-amine] yielded a Kd in assay [1] of 8000 nM. In assay [2] (Table G, HEK293T), the IC50 was greater than 21000 nM.

`Cc1c2ccncc2cc2c3cc(OCC[C@H](C)N)ccc3n(C)c12` [Compound 268, (S)-4-((5,6-dimethyl-6H-pyrido[4,3-b]carbazol-9-yl)oxy)butan-2-amine]: the Kd in assay [1] was 8700 nM. The IC50 in assay [2] (Table G, HEK293T) was 2900 nM.

In assay [1], `Cc1c2ccncc2cc2c3cc(OC[C@H](C)Nc4ccccn4)ccc3n(C)c12` [Compound 269, (S)—N-(1-((5,6-dimethyl-6H-pyrido[4,3-b]carbazol-9-yl)oxy)propan-2-yl)pyridin-2-amine] returned a Kd of 1400 nM. Moreover, in assay [2] (Table G, HEK293T), the IC50 was greater than 100000 nM.

Turning to `Cc1c2ccnc(C(=O)N[C@H](C)CN(C)C)c2cc2c3cc(OCC(N)=O)ccc3n(C)c12` [Compound 270, 9-(2-amino-2-oxo-ethoxy)-N-[(1R)-2-(dimethylamino)-1-methyl-ethyl]-5,6-dimethyl-pyrido[4,3-b]carbazole-1-carboxamide], in assay [1], binding was characterised by a dissociation constant (Kd) of 510 nM. Besides, in assay [2] (Table G, HEK293T), the IC50 stood at 360 nM.

In turn, `Cc1c2ccnc(C(=O)N[C@H](C)CN(C)C)c2cc2c3cc(OC[C@H](C)N)ccc3n(C)c12` [Compound 271, 9-[(2S)-2-aminopropoxy]-N-[(1R)-2-(dimethylamino)-1-methyl-ethyl]-5,6-dimethyl-pyrido[4,3-b]carbazole-1-carboxamide] showed a dissociation constant (Kd) in assay [1] of 130 nM. The IC50 in assay [2] (Table G, HEK293T) was greater than 100000 nM.

As for `CC(=O)N[C@@H](C)COc1ccc2c(c1)c1cc3cnccc3c(C)c1n2C` [Compound 272, (S)—N-(1-((5,6-dimethyl-6H-pyrido[4,3-b]carbazol-9-yl)oxy)propan-2-yl)acetamide], in assay [1], the Kd came to 7700 nM. For the same molecule, in assay [2] (Table G, HEK293T), the IC50 is 2000 nM.

As to `Cc1c2ccncc2cc2c3cc(OC[C@H](C)NC(N)=O)ccc3n(C)c12` [Compound 273, (S)-1-(1-((5,6-dimethyl-6H-pyrido[4,3-b]carbazol-9-yl)oxy)propan-2-yl)urea], in assay [1], the Kd came to 140 nM. Besides, the IC50 in assay [2] (Table G, HEK293T) was found to be 390 nM.

`CCN[C@@H](C)COc1ccc2c(c1)c1cc3cnccc3c(C)c1n2C` [Compound 275, (2S)-1-(5,6-dimethylpyrido[4,3-b]carbazol-9-yl)oxy-N-ethyl-propan-2-amine] registered a Kd in assay [1] of 62 nM. Also, in assay [2] (Table G, HEK293T), the 50% inhibitory concentration (IC50) stood at 20000 nM.

The molecule `CN[C@@H](C)COc1ccc2c(c1)c1cc3cnccc3c(C)c1n2C` [Compound 276, (S)-1-((5,6-dimethyl-6H-pyrido[4,3-b]carbazol-9-yl)oxy)-N-methylpropan-2-amine] had a Kd in assay [1] of 41 nM. The IC50 in assay [2] (Table G, HEK293T) was 12000 nM.

`CCCN[C@@H](C)COc1ccc2c(c1)c1cc3cnccc3c(C)c1n2C` [Compound 277, (2S)-1-(5,6-dimethylpyrido[4,3-b]carbazol-9-yl)oxy-N-propyl-propan-2-amine]: binding in assay [1] was characterised by a dissociation constant (Kd) of 20 nM. For the same molecule, the IC50 in assay [2] turned out to be 1500 nM.

For `COCCN[C@@H](C)COc1ccc2c(c1)c1cc3cnccc3c(C)c1n2C` [Compound 278, (2S)-1-(5,6-dimethylpyrido[4,3-b]carbazol-9-yl)oxy-N-(2-methoxyethyl)propan-2-amine], the Kd in assay [1] was 83 nM. For the same molecule, in assay [2] (Table G, HEK293T), the IC50 was 21000 nM.

Consider `Cc1c2ccncc2cc2c3cc(OC[C@H](C)NCC(F)F)ccc3n(C)c12` [Compound 279, (2S)—N-(2,2-difluoroethyl)-1-(5,6-dimethylpyrido[4,3-b]carbazol-9-yl)oxy-propan-2-amine], for which the Kd in assay [1] stood at 250 nM. Also, in assay [2] (Table G, HEK293T), the IC50 amounted to 2400 nM.

In assay [1], `Cc1c2ccncc2cc2c3cc(C(=O)NC[C@H](C)N)ccc3n(C)c12` [Compound 280, (S)—N-(2-aminopropyl)-5,6-dimethyl-6H-pyrido[4,3-b]carbazole-9-carboxamide] had a Kd of 880 nM. Besides, in assay [2] (Table G, HEK293T), the IC50 was 35000 nM.

`Cc1c2ccncc2cc2c3cc(C(=O)N[C@@H](C)CN)ccc3n(C)c12` [Compound 281, (S)—N-(1-aminopropan-2-yl)-5,6-dimethyl-6H-pyrido[4,3-b]carbazole-9-carboxamide] had a Kd in assay [1] of 460 nM. The IC50 in assay [2] (Table G, HEK293T) came out at 17000 nM.

Regarding `Cc1c2ccncc2cc2c3cc(C(=O)N[C@H](C)CN)ccc3n(C)c12` [Compound 282, N-[(1R)-2-amino-1-methyl-ethyl]-5,6-dimethyl-pyrido[4,3-b] carbazole-9-carboxamide], the Kd in assay [1] turned out to be 140 nM. Moreover, in assay [2] (Table G, HEK293T), the IC50 was determined as 670 nM.

Consider `Cc1c2ccncc2cc2c3cc(OC[C@H](C)NC(C)C)ccc3n(C)c12` [Compound 283, (S)-1-((5,6-dimethyl-6H-pyrido[4,3-b]carbazol-9-yl)oxy)-N-isopropylpropan-2-amine], for which, in assay [1], binding was characterised by a dissociation constant (Kd) of 90 nM. The IC50 in assay [2] (Table G, HEK293T) worked out at 2400 nM.

Regarding `Cc1c2ccncc2cc2c3cc(C(=O)NC[C@@H](C)N)ccc3n(C)c12` [Compound 284, (R)—N-(2-aminopropyl)-5,6-dimethyl-6H-pyrido[4,3-b]carbazole-9-carboxamide], in assay [1], the Kd stood at 350 nM. The IC50 in assay [2] (Table G, HEK293T) is 1800 nM.

In assay [1], `Cc1c2ccncc2cc2c3cc(C(=O)NC[C@@H](C)O)ccc3n(C)c12` [Compound 285, (R)—N-(2-hydroxypropyl)-5,6-dimethyl-6H-pyrido[4,3-b]carbazole-9-carboxamide] had a Kd of 120 nM. Moreover, the IC50 in assay [2] (Table G, HEK293T) worked out at 900 nM.

The molecule `Cc1c2ccncc2cc2c3cc(C(=O)N[C@H](C)CN(C)C)ccc3n(C)c12` [Compound 286, N-[(1R)-2-(dimethylamino)-1-methyl-ethyl]-5,6-dimethyl-pyrido[4,3-b]carbazole-9-carboxamide] registered a Kd in assay [1] of 2600 nM. Besides, the IC50 in assay [2] (Table G, HEK293T) turned out to be 10000 nM.

In the case of `Cc1c2ccncc2cc2c3cc(C(=O)NC[C@H](C)O)ccc3n(C)c12` [Compound 287, N-[(2S)-2-hydroxypropyl]-5,6-dimethyl-pyrido[4,3-b]carbazole-9-carboxamide], in assay [1], the Kd is 1500 nM. Also, the IC50 in assay [2] (Table G, HEK293T) stood at 1400 nM.

In turn, `COC[C@H](C)NC(=O)c1ccc2c(c1)c1cc3cnccc3c(C)c1n2C` [Compound 288, (S)—N-(1-methoxypropan-2-yl)-5,6-dimethyl-6H-pyrido[4,3-b]carbazole-9-carboxamide] showed a Kd in assay [1] of 9600 nM. In assay [2] (Table G, HEK293T), the IC50 was 2000 nM.

As to `Cc1c2ccncc2cc2c3cc(C(=O)N[C@H](C)CO)ccc3n(C)c12` [Compound 289, (R)—N-(1-hydroxypropan-2-yl)-5,6-dimethyl-6H-pyrido[4,3-b]carbazole-9-carboxamide], in assay [1], the affinity, expressed as Kd, was 5000 nM. In assay [2] (Table G, HEK293T), the IC50 came out at 2400 nM.

For `Cc1c2ccnc(C(=O)NCC(N)=O)c2cc2c3ccccc3n(C)c12` [Compound 290, N-(2-amino-2-oxoethyl)-5,6-dimethyl-6H-pyrido[4,3-b]carbazole-1-carboxamide], in assay [1], the Kd was greater than 20000 nM. The IC50 in assay [2] (Table G, HEK293T) was 8300 nM.

Turning to `Cc1c2ccncc2cc2c3cc(C(=O)N[C@@H](C)CO)ccc3n(C)c12` [Compound 291, N-[(1S)-2-hydroxy-1-methyl-ethyl]-5,6-dimethyl-pyrido[4,3-b]carbazole-9-carboxamide], the Kd in assay [1] is 3800 nM. Besides, in assay [2] (Table G, HEK293T), the IC50 was 1800 nM.

For the molecule `Cc1c2ccnc(C(=O)N[C@H](C)CN(C)C)c2cc2c3ccccc3n(C)c12` [Compound 292, (R)—N-(1-(dimethylamino)propan-2-yl)-5,6-dimethyl-6H-pyrido[4,3-b]carbazole-1-carboxamide], the equilibrium dissociation constant (Kd) in assay [1] amounted to 5500 nM. Moreover, the IC50 in assay [2] stood at 13000 nM.

Consider `Cc1c2ccncc2cc2c3cc(C(=O)NC[C@@H](C)N(C)C)ccc3n(C)c12` [Compound 294, N-[(2R)-2-(dimethylamino)propyl]-5,6-dimethyl-pyrido[4,3-b]carbazole-9-carboxamide], for which, in assay [1], the affinity, expressed as Kd, was 300 nM. Further, the IC50 in assay [2] (Table G, HEK293T) worked out at 13000 nM.

Molecule `Cc1c2ccncc2cc2c3cc(C(=O)N[C@@H](C)CN(C)C)ccc3n(C)c12` [Compound 295, N-[(1S)-2-(dimethylamino)-1-methyl-ethyl]-5,6-dimethyl-pyrido[4,3-b]carbazole-9-carboxamide] registered a Kd in assay [1] of 350 nM. In addition, the IC50 in assay [2] (Table G, HEK293T) was 41000 nM.

Turning to `Cc1c2ccncc2cc2c3cc(OCC4=NCCN4)ccc3n(C(C)C)c12` [Example 84, 9-(4,5-dihydro-1H-imidazol-2-ylmethoxy)-6-isopropyl-5-methyl-pyrido[4,3-b]carbazole], the IC25 (as a rule, the concentration needed for an effect of 25%) in assay [2] (24 h, Table D, HEK293T, 24 h treatment, read-out: RANT IC25) is greater than 5000 nM. In assay [3], affinity was put at a Ki of 13000 nM.
